Data from patent EP4070856A1, “ORGANIC COMPOUNDS AND USES THEREOF” (Adebiyi, Ezekiel, priority 2021, dated 2022).

Assay: In vitro cytotoxicity with L-6 cells (Alamar Blue)
Format: cell-based
Details: L-6 cells (rat skeletal myoblasts), 70 h + 2 h Alamar Blue; read-out: Cytotoxicity L6 IC50
Description: Assays were performed in 96-well microtiter plates, each well containing 100 µl of RPMI 1640 medium supplemented with 1% L-glutamine (200mM) and 10% fetal bovine serum, and 4000 L-6 cells (a primary cell line derived from rat skeletal myoblasts). Serial drug dilutions of eleven 3-fold dilution steps covering a range from 100 to 0.002 µg/ml were prepared. After 70hours of incubation the plates were inspected under an inverted microscope to assure growth of the controls and sterile conditions. 10µl of Alamar Blue was then added to each well and the plates incubated for another 2 hours. Later they were read with a Spectramax Gemini XS microplate fluorometer (Molecular Devices Cooperation, Sunnyvale, CA, USA) using an excitation wave length of 536 nm and an emission wave length of 588 nm. The IC50 values were calculated by linear regression from the sigmoidal dose inhibition curves using SoftmaxPro software (Molecular Devices Cooperation, Sunnyvale, CA, USA). Podophyllotoxin (Sigma P4405) as control.

With `N=C(NO)c1ccc(C(=O)NO)cc1` [Compound 1c] as the compound, how does the CC50 at 72 h read?
Its CC50 at 72 h is 56.1 µg/mL.

Which CC50 at 72 h does the source give for `N=C(NO)c1ccc(NC(=O)NOCc2ccccc2)cc1` [Compound 2b] here?
The CC50 at 72 h was 43 µg/mL.

Which CC50 at 72 h does the source give for `N=C(NO)c1ccc(NC(=O)NO)cc1` [Compound 2c] here?
The CC50 at 72 h was greater than 100 µg/mL.

Which CC50 at 72 h does the source give for `N=C(NO)c1ccc(NC(=S)NOCc2ccccc2)cc1` [Compound 3c] here?
The CC50 at 72 h was 57.6 µg/mL.

With `O=C(NO)Nc1ccc(Cl)c(Cl)c1` [Compound 4b] as the compound, how does the CC50 at 72 h read?
Its CC50 at 72 h is greater than 100 µg/mL.

Which CC50 at 72 h does the source give for `O=C(NO)NC1CCCCC1` [Compound 7b] here?
The CC50 at 72 h was 93 µg/mL.

For `Nc1ccc(C(=O)NO)cc1` [Compound 9b], which CC50 at 72 h is on record?
Its CC50 at 72 h is 43.4 µg/mL.

Which CC50 at 72 h does the source give for `CCCCONC(=O)c1ccc(NC(=N)N)cc1` [Compound 9d] here?
The CC50 at 72 h was greater than 100 µg/mL.

For `CC(=O)N(O)c1ccc(C(=N)NO)cc1` [Compound 10c], which CC50 at 72 h is on record?
The CC50 at 72 h was 52.2 µg/mL.

For `N=C(NO)c1ccc(S(=O)(=O)NO)cc1` [Compound 12b], which CC50 at 72 h is on record?
The CC50 at 72 h was greater than 100 µg/mL.

Which CC50 at 72 h does the source give for `NC(=O)c1ccc(S(=O)(=O)NO)cc1` [Compound 12c] here?
Its CC50 at 72 h is greater than 100 µg/mL.

With `N=C(N)c1ccc(S(=O)(=O)NO)cc1` [Compound 12d] as the compound, how does the CC50 at 72 h read?
The CC50 at 72 h was greater than 100 µg/mL.

For `N=C(N)c1ccc(N)cc1` [Compound 13c], which CC50 at 72 h is on record?
The CC50 at 72 h was 42.9 µg/mL.

With `CC(C)(C)C(=O)N(O)c1ccc(C#N)cc1` [Compound 15a] as the compound, how does the CC50 at 72 h read?
The CC50 at 72 h was 33.5 µg/mL.

For `Cc1ccc(S(=O)(=O)NC(C#N)C#N)cc1` [Compound 16a], which CC50 at 72 h is on record?
The CC50 at 72 h was greater than 100 µg/mL.

For `N#Cc1nc(-c2ccco2)c[n+]([O-])c1N` [Compound 16b], which CC50 at 72 h is on record?
The CC50 at 72 h was 61.1 µg/mL.

Which CC50 at 72 h does the source give for `Nc1nc2ncc(C(=O)O)nc2c(=O)[nH]1` [Compound P6CAH] here?
The CC50 at 72 h was greater than 100 µg/mL.

For `COc1cc([C@@H]2c3cc4c(cc3[C@H](O)[C@H]3COC(=O)[C@H]23)OCO4)cc(OC)c1OC` [Podophyllotoxin, reference compound], which IC50 at 72 h is on record?
Its IC50 at 72 h is 6 ng/mL.
